Patent US7902187B2, “6-substituted 2-(benzimidazolyl)purine and purinone derivatives for immunosuppression” (Wyeth LLC, priority 2006, dated 2011)

Each compound was assayed against T1, Jak3 (Homo sapiens, UniProt P52333) (assay: Jak3 Kinase Assay (HTRF)). Details: GST-Jak3 catalytic domain, 1 μM ATP, 60-min incubation; read-out: Jak3 Kinase, IC50 representation.
T1 construct: A fragment encoding the catalytic domain of Jak3 (508aa to 1124aa) was ligated with GST at 5′ end; made in house; host or cells: Sf9 insect cells (baculovirus, pFastBac 1)
T1 sequence (P52333 508-1124): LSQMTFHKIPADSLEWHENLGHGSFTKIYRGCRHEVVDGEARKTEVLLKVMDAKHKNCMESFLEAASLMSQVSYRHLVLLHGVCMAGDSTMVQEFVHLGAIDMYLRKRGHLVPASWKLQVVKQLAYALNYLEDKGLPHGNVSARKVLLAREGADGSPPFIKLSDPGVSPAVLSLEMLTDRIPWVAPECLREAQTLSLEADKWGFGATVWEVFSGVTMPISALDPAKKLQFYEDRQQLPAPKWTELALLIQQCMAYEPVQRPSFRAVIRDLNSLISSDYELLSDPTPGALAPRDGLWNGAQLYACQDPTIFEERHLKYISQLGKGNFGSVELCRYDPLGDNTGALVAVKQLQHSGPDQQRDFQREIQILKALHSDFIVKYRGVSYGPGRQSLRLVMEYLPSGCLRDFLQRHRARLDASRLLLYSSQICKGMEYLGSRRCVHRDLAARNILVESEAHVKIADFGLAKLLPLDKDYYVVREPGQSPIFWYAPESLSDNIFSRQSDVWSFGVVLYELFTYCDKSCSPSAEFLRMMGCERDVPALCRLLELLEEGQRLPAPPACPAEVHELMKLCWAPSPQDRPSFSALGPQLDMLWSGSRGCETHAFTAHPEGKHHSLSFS
Type: biochemical
Protocol: Human Jak3 cDNA was amplified by PCR. A fragment encoding the catalytic domain of Jak3 (508aa to 1124aa) was ligated with GST at 5′ end. This fused GST-Jak3 DNA fragment was cloned into the EcoRI site of the donor plasmid pFastBac 1 (Life Technologies #10359-016). The transformation, transposition, and transfection of insect cells (Sf9) were performed according to the manufacture's instructions. The cell lysate containing recombinant GST-Jak3 was used in the kinase assay. Anti-GST antibody (10 μg/ml, Sigma #G1417) was coated onto a 384-well plate at 4° C. overnight. Cell lysate containing GST-Jak3 (1:100 dilution) was added to the anti-GST coated plates, and GST-Jak3 was captured by immobilized anti-GST antibody. Testing compounds and substrate mix (50 mM HEPES, pH 7, 0.5 mM Na3VO4, 25 mM MgCl2, 1 mM DTT, 0.005% BSA, 1 μM ATP, and 4.5 μg/ml biotinyl poly-Glu,Ala,Tyr) were added to the plate to initiate the reaction. After a 60-min incubation, the reaction was stopped by 4 mM EDTA, and phosphorylation of biotinyl poly-Glu,Ala,Tyr was detected using 17 μg/ml Cy5-streptavidin (Amersham, #PA92005) and 2.7 μg/ml Europium-conjugated anti-phosphotyrosine antibody (PerkinElmer #AD0069) using homogeneous time-resolved fluorescence (HTRF) technology.
With `N#Cc1ccc2ncn(-c3nc(NCCCN4CCCCC4)c4[nH]c(=O)n(C5CCOCC5)c4n3)c2c1` the IC50 was < 100 nM.
In the case of `CC(C)(C)NS(=O)(=O)c1cccc(-c2nc(-n3cnc4ccc(F)cc43)nc3c2[nH]c(=O)n3C2CCOCC2)c1`, the IC50 is reported as < 100 nM.
For `O=c1[nH]c2c(-c3cncnc3)nc(-n3cnc4ccc(F)cc43)nc2n1C1CCOCC1`, the IC50 was < 100 nM.
With `Cn1c(=O)n([C@H]2CC[C@H](O)CC2)c2nc(-n3cnc4ccc(F)cc43)nc(N3CCCC3)c21` the IC50 was < 100 nM.
With `O=c1[nH]c2c(-c3cn[nH]c3)nc(-n3cnc4ccc(F)cc43)nc2n1C1CCOCC1` the IC50 was < 100 nM.
For `O=c1[nH]c2c(-c3ccc(Cl)cc3)nc(-n3cnc4ccc(F)cc43)nc2n1C1CCOCC1`, the IC50 was 100 to 1000 nM.
With `O=c1[nH]c2c(CO)nc(-n3cnc4ccc(F)cc43)nc2n1C1CCOCC1` the IC50 was 100 to 1000 nM.
In the case of `COCCCn1c(=O)[nH]c2c(N3CC(F)(F)C3)nc(-n3cnc4ccc(C#N)cc43)nc21`, the IC50 is reported as < 100 nM.
For `CC(C)(C)OC(=O)N1CC(Nc2nc(-n3cnc4ccc(Cl)cc43)nc3c2[nH]c(=O)n3C2CCOCC2)C1`, the IC50 was < 100 nM.
In the case of `CN1CCN(c2nc(-n3cnc4ccc(C#N)cc43)nc3c2[nH]c(=O)n3C2CCOCC2)CC1`, the IC50 is reported as < 100 nM.
In the case of `O=c1[nH]c2c(-c3ccncc3)nc(-n3cnc4ccc(Cl)cc43)nc2n1C1CCOCC1`, the IC50 is reported as < 100 nM.
In the case of `O=c1[nH]c2c(C3CCC3)nc(-n3cnc4ccc(F)cc43)nc2n1C1CCOCC1`, the IC50 is reported as 100 to 1000 nM.
With `O=c1[nH]c2c(Oc3ccncc3)nc(-n3cnc4ccc(F)cc43)nc2n1C1CCOCC1` the IC50 was < 100 nM.
For `Cc1nc2c(-c3ccncc3)nc(-n3cnc4ccc(Cl)cc43)nc2n1C1CCOCC1`, the IC50 was < 100 nM.
With `O=c1[nH]c2c(N3CC(F)(F)C3)nc(-n3cnc4ccc(F)cc43)nc2n1[C@H]1CC[C@H](O)CC1` the IC50 was < 100 nM.
In the case of `N#Cc1ccc2ncn(-c3nc(NCC4CC4)c4[nH]c(=O)n(C5CCOCC5)c4n3)c2c1`, the IC50 is reported as < 100 nM.
For `CNC(=O)c1nc(-n2cnc3ccc(F)cc32)nc2c1[nH]c(=O)n2C1CCOc2ccccc21` (stereo not drawn), the IC50 was < 100 nM.
In the case of `Cn1c(=O)n(C2CCOCC2)c2nc(-n3cnc4ccc(Cl)cc43)nc(N3CC(F)(F)C3)c21`, the IC50 is reported as < 100 nM.
For `O=c1[nH]c2c(N3CCCC3)nc(-n3cnc4ccc(F)cc43)nc2n1C1CCOCC1`, the IC50 was < 100 nM.
With `O=c1[nH]c2c(N3CC(O)C3)nc(-n3cnc4ccc(F)cc43)nc2n1C1CCOCC1` the IC50 was < 100 nM.
With `O=C(O)c1nc(-n2cnc3ccc(F)cc32)nc2c1[nH]c(=O)n2C1CCOCC1` the IC50 was 100 to 1000 nM.
With `O=c1[nH]c2c(Cl)nc(-n3cnc4ccc(F)cc43)nc2n1[C@@H]1CCOc2c(F)cccc21` the IC50 was < 100 nM.
With `CCCCc1nc(-n2cnc3ccc(F)cc32)nc2c1[nH]c(=O)n2[C@@H]1CCOc2c(F)cccc21` the IC50 was > 1000 nM.
Work on `O=c1[nH]c2c(OCC3CC3)nc(-n3cnc4ccc(F)cc43)nc2n1C1CCOCC1` yielded an IC50 of 100 to 1000 nM.
For `COCCNc1nc(-n2cnc3ccc(Cl)cc32)nc2c1[nH]c(=O)n2C1CCOCC1`, the IC50 was < 100 nM.
With `O=c1[nH]c2c(N3CCC3)nc(-n3cnc4ccc(F)cc43)nc2n1[C@@H]1CCOc2c(F)cccc21` the IC50 was < 100 nM.
With `Cn1c(=O)n([C@H]2CC[C@H](O)CC2)c2nc(-n3cnc4ccc(Cl)cc43)nc(N3CCC(F)(F)CC3)c21` the IC50 was < 100 nM.
With `O=c1[nH]c2c(-c3ccccc3)nc(-n3cnc4ccccc43)nc2n1C1CCOCC1` the IC50 was 100 to 1000 nM.
`Cc1cccc(-c2nc(-n3cnc4ccc(F)cc43)nc3c2[nH]c(=O)n3C2CCOCC2)c1` gave an IC50 of 100 to 1000 nM.
In the case of `CN(C)C(=O)CNc1nc(-n2cnc3ccc(F)cc32)nc2c1[nH]c(=O)n2C1CCOCC1`, the IC50 is reported as < 100 nM.
With `Cn1cc(-c2nc(-n3cnc4ccc(F)cc43)nc3c2[nH]c(=O)n3C2CCOCC2)cn1` the IC50 was < 100 nM.
For `Cn1c(=O)n([C@H]2CC[C@H](O)CC2)c2nc(-n3cnc4ccc(Cl)cc43)nc(N3CCC(F)CC3)c21`, the IC50 was < 100 nM.
In the case of `N#Cc1ccc2ncn(-c3nc(NCCCN)c4[nH]c(=O)n(C5CCOCC5)c4n3)c2c1`, the IC50 is reported as < 100 nM.
`Cn1c(=O)n([C@H]2CC[C@H](O)CC2)c2nc(-n3cnc4ccc(C#N)cc43)nc(N3CC(F)(F)C3)c21` was tested, and the IC50 was < 100 nM.
For `O=C(c1nc(-n2cnc3ccc(F)cc32)nc2c1[nH]c(=O)n2C1CCOc2ccccc21)N1CCCCC1` (stereo not drawn), the IC50 was < 100 nM.
`CCc1noc(CNc2nc(-n3cnc4ccc(F)cc43)nc3c2[nH]c(=O)n3C2CCOCC2)n1` was tested, and the IC50 was < 100 nM.
With `O=c1[nH]c2c(-c3ccccc3)nc(-n3cnc4ccc(F)cc43)nc2n1C1CCOCC1` the IC50 was < 100 nM.
With `O=c1[nH]c2c(N[C@@H]3CCC[C@@H]3O)nc(-n3cnc4ccc(F)cc43)nc2n1C1CCOCC1` the IC50 was < 100 nM.
Compound `O=c1[nH]c2c(-c3ccccc3)nc(-n3cnc4ccc(F)cc43)nc2n1[C@@H]1CCOc2c(F)cccc21` has an IC50 of 100 to 1000 nM.
In the case of `N#Cc1ccc2ncn(-c3nc(N4CCNCC4)c4[nH]c(=O)n(C5CCOCC5)c4n3)c2c1`, the IC50 is reported as < 100 nM.
In the case of `NC(=O)c1nc(-n2cnc3ccc(F)cc32)nc2c1[nH]c(=O)n2C1CCOc2ccccc21` (stereo not drawn), the IC50 is reported as < 100 nM.
With `O=c1[nH]c2c(-c3cccc4[nH]ccc34)nc(-n3cnc4ccc(F)cc43)nc2n1C1CCOCC1` the IC50 was < 100 nM.
`O=c1[nH]c2c(N3CCC(F)(F)C3)nc(-n3cnc4ccc(F)cc43)nc2n1C1CCOCC1` was tested, and the IC50 was < 100 nM.
For `N#CCNC(=O)c1nc(-n2cnc3ccc(F)cc32)nc2c1[nH]c(=O)n2C1CCOc2ccccc21` (stereo not drawn), the IC50 was < 100 nM.
With `O=C(c1nc(-n2cnc3ccc(F)cc32)nc2c1[nH]c(=O)n2C1CCOCC1)N1CCCCC1` the IC50 was 100 to 1000 nM.
With `COc1ccc(-c2nc(-n3cnc4ccc(F)cc43)nc3c2[nH]c(=O)n3C2CCOCC2)cn1` the IC50 was < 100 nM.
For `O=C(O)c1nc(-n2cnc3ccc(F)cc32)nc2c1[nH]c(=O)n2C1CCOc2ccccc21` (stereo not drawn), the IC50 was < 100 nM.
`O=c1[nH]c2c(OC3CCOC3)nc(-n3cnc4ccc(F)cc43)nc2n1C1CCOCC1` (stereo not drawn) showed an IC50 of 100 to 1000 nM.
`O=c1[nH]c2c(-c3ccc(Cl)cc3)nc(-n3cnc4ccc(F)cc43)nc2n1[C@@H]1CCOc2c(F)cccc21` showed an IC50 of 100 to 1000 nM.
Work on `CCOC(=O)c1nc(-n2cnc3ccc(F)cc32)nc2c1[nH]c(=O)n2C1CCOc2ccccc21` (stereo not drawn) yielded an IC50 of 100 to 1000 nM.
For `COCCCCn1c(=O)[nH]c2c(N3CC(F)(F)C3)nc(-n3cnc4ccc(C#N)cc43)nc21`, the IC50 was < 100 nM.
With `O=c1[nH]c2c(N3CC(F)(F)C3)nc(-n3cnc4ccc(Cl)cc43)nc2n1C1CCOCC1` the IC50 was < 100 nM.
For `N#Cc1ccc2ncn(-c3nc(-c4ccncc4)c4[nH]c(=O)n(C5CCOCC5)c4n3)c2c1`, the IC50 was < 100 nM.
`Cn1c(=O)n([C@H]2CC[C@H](O)CC2)c2nc(-n3cnc4ccc(F)cc43)nc(N3CC[C@H](F)C3)c21` was tested, and the IC50 was < 100 nM.
`C[C@H](Nc1nc(-n2cnc3ccc(F)cc32)nc2c1[nH]c(=O)n2C1CCOCC1)c1ccccc1` was tested, and the IC50 was 100 to 1000 nM.
For `CCC(C)c1nc(-n2cnc3ccc(F)cc32)nc2c1[nH]c(=O)n2[C@@H]1CCOc2c(F)cccc21` (stereo partly drawn), the IC50 was > 1000 nM.
In the case of `CC(c1cccnc1)n1c(=O)[nH]c2c(N3CC(F)(F)C3)nc(-n3cnc4ccc(C#N)cc43)nc21` (stereo not drawn), the IC50 is reported as < 100 nM.
Compound `CO[C@H]1CC[C@H](n2c(=O)[nH]c3c(Cl)nc(-n4cnc5ccc(C#N)cc54)nc32)CC1` has an IC50 of 100 to 1000 nM.
In the case of `COc1ccc(-c2nc(-n3cnc4ccc(F)cc43)nc3c2[nH]c(=O)n3C2CCOCC2)cc1`, the IC50 is reported as < 100 nM.
In the case of `CNC(=O)c1nc(-n2cnc3ccc(F)cc32)nc2c1[nH]c(=O)n2C1CCOCC1`, the IC50 is reported as < 100 nM.
With `N#Cc1ccc2ncn(-c3nc(N4CC(C(=O)O)C4)c4[nH]c(=O)n(C5CCOCC5)c4n3)c2c1` the IC50 was < 100 nM.
With `Cc1ncccc1Cn1c(=O)[nH]c2c(N3CC(F)(F)C3)nc(-n3cnc4ccc(C#N)cc43)nc21` the IC50 was < 100 nM.
In the case of `N#Cc1ccc2ncn(-c3nc(N4CC(O)C4)c4[nH]c(=O)n(C5CCOCC5)c4n3)c2c1`, the IC50 is reported as < 100 nM.
For `Cn1c(=O)n([C@H]2CC[C@H](O)CC2)c2nc(-n3cnc4ccc(F)cc43)nc(N3CC(F)(F)C3)c21`, the IC50 was < 100 nM.
Work on `CC1CCN(c2nc(-n3cnc4ccc(Cl)cc43)nc3c2[nH]c(=O)n3C2CCOCC2)CC1` yielded an IC50 of 100 to 1000 nM.
`O=c1[nH]c2c(-c3ccc(F)cc3)nc(-n3cnc4ccc(F)cc43)nc2n1C1CCOCC1` was tested, and the IC50 was 100 to 1000 nM.
With `CCOC(=O)CCc1nc(-n2cnc3ccc(F)cc32)nc2c1[nH]c(=O)n2[C@@H]1CCOc2c(F)cccc21` the IC50 was 100 to 1000 nM.
`Cn1c(=O)n([C@H]2CC[C@H](O)CC2)c2nc(-n3cnc4ccc(Cl)cc43)nc(N3CC[C@@H](F)C3)c21` was tested, and the IC50 was < 100 nM.
For `O=c1[nH]c2c(N3CCC3)nc(-n3cnc4ccc(F)cc43)nc2n1C1CCOCC1`, the IC50 was < 100 nM.
